Assay results: ChEMBL document CHEMBL1201862, “PubChem BioAssay data set” (2004)
Values belong to the compound of their own block, whether it stands above or below them. Active and inactive are the calls of the source.

How the values were obtained:
Hexokinase HKDC1 = molecular target: T1, Hexokinase HKDC1 (Homo sapiens, UniProt Q2TB90); test: HKDC1 hexokinase inhibitors, dose response, biochemical, W721R variant (AID 504729); assay type: functional
T1 sequence (Q2TB90 whole entry): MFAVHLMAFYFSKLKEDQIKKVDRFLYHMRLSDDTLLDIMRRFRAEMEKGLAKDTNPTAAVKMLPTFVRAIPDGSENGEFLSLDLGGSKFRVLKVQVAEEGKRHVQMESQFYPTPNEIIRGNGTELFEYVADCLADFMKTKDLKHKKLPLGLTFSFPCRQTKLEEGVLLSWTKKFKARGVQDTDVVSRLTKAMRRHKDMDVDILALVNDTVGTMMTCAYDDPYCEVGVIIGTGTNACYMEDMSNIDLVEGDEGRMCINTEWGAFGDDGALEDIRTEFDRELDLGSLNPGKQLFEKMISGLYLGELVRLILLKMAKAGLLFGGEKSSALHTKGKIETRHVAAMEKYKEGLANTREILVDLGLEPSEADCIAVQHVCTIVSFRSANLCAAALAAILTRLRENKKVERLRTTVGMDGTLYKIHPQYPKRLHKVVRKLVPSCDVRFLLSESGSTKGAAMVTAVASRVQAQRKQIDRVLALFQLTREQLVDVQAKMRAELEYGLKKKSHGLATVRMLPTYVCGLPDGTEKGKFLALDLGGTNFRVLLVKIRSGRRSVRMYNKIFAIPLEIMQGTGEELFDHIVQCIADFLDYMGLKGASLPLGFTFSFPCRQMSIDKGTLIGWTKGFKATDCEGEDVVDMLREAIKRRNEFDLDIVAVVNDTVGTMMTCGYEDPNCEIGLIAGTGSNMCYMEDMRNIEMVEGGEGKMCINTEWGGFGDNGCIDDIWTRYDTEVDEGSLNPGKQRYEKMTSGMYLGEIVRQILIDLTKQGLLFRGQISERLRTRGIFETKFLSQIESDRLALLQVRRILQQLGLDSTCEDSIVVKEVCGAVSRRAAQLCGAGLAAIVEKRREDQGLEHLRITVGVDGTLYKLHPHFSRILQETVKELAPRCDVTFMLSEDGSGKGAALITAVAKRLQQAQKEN

Vero = Vero cell cytotoxicity, cytotoxicity control for flavivirus capping enzyme inhibitors (AID 588742); assay type: functional; conditions: Chlorocebus sabaeus
[1] = NIH-3T3 fibroblast cytotoxicity, dose response, cytotoxicity control, cell-based, fluorescence, Alamar Blue, secondary assay (AID 2327); assay type: functional;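 note: NIH-3T3 mouse fibroblasts cultured with fluconazole at 8 µg/mL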
[2] = molecular target: T2, Zinc finger protein mex-5 (Caenorhabditis elegans, UniProt Q9XUB2); test: MEX-5/TCR-2 RNA interaction inhibitors, dose response, biochemical, C. elegans, fluorescence polarization (AID 1960)
T2 sequence (Q9XUB2 whole entry): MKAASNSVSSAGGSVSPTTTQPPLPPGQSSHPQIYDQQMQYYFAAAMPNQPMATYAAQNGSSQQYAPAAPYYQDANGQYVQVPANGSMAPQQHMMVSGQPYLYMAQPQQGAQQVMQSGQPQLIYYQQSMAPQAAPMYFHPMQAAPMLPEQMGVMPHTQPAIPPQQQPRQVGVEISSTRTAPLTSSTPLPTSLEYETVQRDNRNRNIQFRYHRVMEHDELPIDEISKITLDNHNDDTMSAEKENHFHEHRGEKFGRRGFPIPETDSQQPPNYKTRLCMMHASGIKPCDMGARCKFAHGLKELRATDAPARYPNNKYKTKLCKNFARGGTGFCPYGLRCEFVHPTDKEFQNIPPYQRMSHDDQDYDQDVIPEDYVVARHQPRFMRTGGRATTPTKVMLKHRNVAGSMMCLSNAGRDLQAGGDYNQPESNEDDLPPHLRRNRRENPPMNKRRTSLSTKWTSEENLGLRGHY

[3] = molecular target: 1-phosphatidylinositol 4,5-bisphosphate phosphodiesterase gamma-1 (Homo sapiens, UniProt P19174); test: Counterscreen for inhibitors of phospholipase C isozymes (PLC-B3): Fluorescence-based biochemical high throughput dose response assay to identify inhibitors of phospholipase C isozymes (PLC-gamma1).
[4] = molecular target: T3, RNA-binding protein pos-1 (Caenorhabditis elegans, UniProt G5EF15); test: inhibitors of POS-1/mex-3 RNA binding, dose response, biochemical, fluorescence polarization (AID 1964);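 note: purified POS-1 fused to maltose binding protein made in E. coli; potency of compounds blocking POS-1 binding to fluorescent RNA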
T3 sequence (G5EF15 whole entry): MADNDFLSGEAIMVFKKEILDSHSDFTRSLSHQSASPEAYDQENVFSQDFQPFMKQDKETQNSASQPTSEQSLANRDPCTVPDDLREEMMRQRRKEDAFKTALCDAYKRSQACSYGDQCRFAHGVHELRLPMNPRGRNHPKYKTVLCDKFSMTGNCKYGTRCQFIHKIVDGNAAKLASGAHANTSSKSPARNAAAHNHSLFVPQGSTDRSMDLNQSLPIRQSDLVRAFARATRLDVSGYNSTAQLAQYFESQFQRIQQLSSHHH

[5] = molecular target: MAP/microtubule affinity-regulating kinase 3 (Homo sapiens, UniProt P27448); assay type: functional;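 note: MARK3 affinity measured as one member of a kinome panel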
[6] = molecular target: Serine/threonine-protein kinase PAK 1 (Homo sapiens, UniProt Q13153); assay type: functional
[7] = molecular target: Serine/threonine-protein kinase Chk2 (Homo sapiens, UniProt O96017); assay type: functional;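 note: CHEK2 entry within a kinome-wide screening panel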
[8] = molecular target: MAP kinase-activated protein kinase 2 (Homo sapiens, UniProt P49137); assay type: functional;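 note: measured as one member of a kinome-wide kinase panel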
[9] = molecular target: Inhibitor of nuclear factor kappa-B kinase subunit beta (Homo sapiens, UniProt O14920); assay type: functional
[10] = molecular target: Serine/threonine-protein kinase MRCK alpha (Homo sapiens, UniProt Q5VT25); assay type: functional
Ephrin type-A receptor 2 = Ephrin type-A receptor 2 (Homo sapiens, UniProt P29317); assay type: functional;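 note: EPHA2 tested as one member of a kinome-wide kinase panel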
[11] = molecular target: Ribosomal protein S6 kinase beta-1 (Homo sapiens, UniProt P23443); assay type: functional;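 note: measured as one member of a kinome-wide profiling panel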
[12] = molecular target: Serine/threonine-protein kinase PLK3 (Homo sapiens, UniProt Q9H4B4); assay type: functional
[13] = molecular target: Interleukin-1 receptor-associated kinase 4 (Homo sapiens, UniProt Q9NWZ3); assay type: functional
Activated CDC42 kinase 1 = Activated CDC42 kinase 1 (Homo sapiens, UniProt Q07912); test: Navigating the Kinome. Panel member name: ACK1; assay type: functional
[14] = molecular target: Serine/threonine-protein kinase TBK1 (Homo sapiens, UniProt Q9UHD2); test: Navigating the Kinome. Panel member name: TBK1; assay type: functional
[15] = molecular target: Cyclin-dependent kinase 8 (Homo sapiens, UniProt P49336); test: Navigating the Kinome. Panel member name: CDK8; assay type: functional
[16] = molecular target: Proto-oncogene tyrosine-protein kinase receptor Ret (Homo sapiens, UniProt P07949); assay type: functional;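 note: measured within a kinome-wide profiling panel, RET as the panel member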
[17] = molecular target: Platelet-derived growth factor receptor alpha (Homo sapiens, UniProt P16234); test: Navigating the Kinome. Panel member name: PDGFRA; assay type: functional
[18] = molecular target: Mitogen-activated protein kinase kinase kinase kinase 2 (Homo sapiens, UniProt Q12851); assay type: functional;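 note: measured as one member of a kinome-wide kinase panel, with MAP4K2 as the panel entry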

Serine/threonine-protein kinase PAK 1, sequence (Q13153 whole entry): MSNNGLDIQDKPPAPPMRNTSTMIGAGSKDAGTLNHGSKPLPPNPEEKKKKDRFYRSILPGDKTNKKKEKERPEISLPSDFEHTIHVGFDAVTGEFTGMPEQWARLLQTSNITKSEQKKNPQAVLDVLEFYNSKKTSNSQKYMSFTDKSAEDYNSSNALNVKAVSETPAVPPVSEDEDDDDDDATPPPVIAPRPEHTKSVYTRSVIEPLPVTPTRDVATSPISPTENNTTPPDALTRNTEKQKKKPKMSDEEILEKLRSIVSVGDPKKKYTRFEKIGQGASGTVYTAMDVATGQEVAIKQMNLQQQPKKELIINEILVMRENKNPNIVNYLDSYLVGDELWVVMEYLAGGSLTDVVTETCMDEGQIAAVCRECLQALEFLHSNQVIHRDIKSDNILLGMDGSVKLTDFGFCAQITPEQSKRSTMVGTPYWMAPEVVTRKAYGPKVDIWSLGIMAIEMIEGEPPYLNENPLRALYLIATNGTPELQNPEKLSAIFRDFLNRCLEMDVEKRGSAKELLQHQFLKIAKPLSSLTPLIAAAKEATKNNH
MAP kinase-activated protein kinase 2, sequence (P49137 whole entry): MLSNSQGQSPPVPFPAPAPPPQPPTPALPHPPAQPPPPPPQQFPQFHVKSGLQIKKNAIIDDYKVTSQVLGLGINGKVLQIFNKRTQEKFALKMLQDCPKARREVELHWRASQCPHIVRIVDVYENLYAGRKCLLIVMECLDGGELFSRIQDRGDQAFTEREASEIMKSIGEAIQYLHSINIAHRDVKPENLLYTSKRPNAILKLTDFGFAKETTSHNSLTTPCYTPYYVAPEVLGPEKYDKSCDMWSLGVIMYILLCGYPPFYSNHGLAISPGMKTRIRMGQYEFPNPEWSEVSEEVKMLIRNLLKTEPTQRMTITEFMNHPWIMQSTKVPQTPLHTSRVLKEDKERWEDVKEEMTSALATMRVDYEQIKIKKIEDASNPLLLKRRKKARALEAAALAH
1-phosphatidylinositol 4,5-bisphosphate phosphodiesterase gamma-1, sequence (P19174 whole entry, the tested form may be a part): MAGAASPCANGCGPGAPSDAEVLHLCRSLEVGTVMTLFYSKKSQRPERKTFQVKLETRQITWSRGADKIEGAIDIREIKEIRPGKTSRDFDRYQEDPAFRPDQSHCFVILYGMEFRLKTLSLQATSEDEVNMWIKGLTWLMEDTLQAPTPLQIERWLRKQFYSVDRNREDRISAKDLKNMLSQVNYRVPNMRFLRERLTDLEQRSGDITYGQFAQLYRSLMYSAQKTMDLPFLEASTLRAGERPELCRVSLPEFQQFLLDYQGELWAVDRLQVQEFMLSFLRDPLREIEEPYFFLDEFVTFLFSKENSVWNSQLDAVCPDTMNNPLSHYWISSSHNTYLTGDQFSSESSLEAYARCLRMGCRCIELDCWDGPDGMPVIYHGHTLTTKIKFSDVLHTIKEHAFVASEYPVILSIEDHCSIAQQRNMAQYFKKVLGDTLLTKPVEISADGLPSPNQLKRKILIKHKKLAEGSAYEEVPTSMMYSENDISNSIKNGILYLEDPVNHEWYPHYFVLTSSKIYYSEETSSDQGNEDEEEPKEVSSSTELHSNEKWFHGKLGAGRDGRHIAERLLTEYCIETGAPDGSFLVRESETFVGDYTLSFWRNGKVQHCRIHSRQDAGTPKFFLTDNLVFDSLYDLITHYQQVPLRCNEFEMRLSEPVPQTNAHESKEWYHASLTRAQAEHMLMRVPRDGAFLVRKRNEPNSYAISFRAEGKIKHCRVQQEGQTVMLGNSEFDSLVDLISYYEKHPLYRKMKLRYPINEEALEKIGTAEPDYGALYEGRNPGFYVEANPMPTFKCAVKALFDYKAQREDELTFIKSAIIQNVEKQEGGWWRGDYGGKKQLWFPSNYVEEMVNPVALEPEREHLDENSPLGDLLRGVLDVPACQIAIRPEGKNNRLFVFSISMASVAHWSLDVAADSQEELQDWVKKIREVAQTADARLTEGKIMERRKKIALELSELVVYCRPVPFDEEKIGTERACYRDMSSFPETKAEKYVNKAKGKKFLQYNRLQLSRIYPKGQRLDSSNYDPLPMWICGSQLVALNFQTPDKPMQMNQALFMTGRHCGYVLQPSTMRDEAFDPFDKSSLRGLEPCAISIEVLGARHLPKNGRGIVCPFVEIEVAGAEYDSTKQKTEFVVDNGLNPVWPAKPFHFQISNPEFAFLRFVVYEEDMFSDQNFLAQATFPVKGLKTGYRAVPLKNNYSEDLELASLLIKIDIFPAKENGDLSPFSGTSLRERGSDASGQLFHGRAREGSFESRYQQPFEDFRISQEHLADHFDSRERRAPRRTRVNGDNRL
Interleukin-1 receptor-associated kinase 4, sequence (Q9NWZ3 whole entry): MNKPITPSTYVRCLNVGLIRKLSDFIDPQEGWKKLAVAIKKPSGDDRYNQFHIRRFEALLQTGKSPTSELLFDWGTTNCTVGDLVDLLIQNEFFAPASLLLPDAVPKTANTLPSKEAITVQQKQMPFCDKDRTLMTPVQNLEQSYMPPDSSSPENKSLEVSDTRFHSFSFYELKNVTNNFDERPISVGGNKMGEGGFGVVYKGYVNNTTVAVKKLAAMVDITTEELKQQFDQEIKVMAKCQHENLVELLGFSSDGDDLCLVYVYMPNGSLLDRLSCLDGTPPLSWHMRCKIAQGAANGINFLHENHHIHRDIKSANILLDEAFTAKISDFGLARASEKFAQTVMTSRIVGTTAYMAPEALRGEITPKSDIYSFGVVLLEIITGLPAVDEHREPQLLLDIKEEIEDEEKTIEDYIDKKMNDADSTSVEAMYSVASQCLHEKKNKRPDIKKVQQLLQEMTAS
Cyclin-dependent kinase 8, sequence (P49336 whole entry): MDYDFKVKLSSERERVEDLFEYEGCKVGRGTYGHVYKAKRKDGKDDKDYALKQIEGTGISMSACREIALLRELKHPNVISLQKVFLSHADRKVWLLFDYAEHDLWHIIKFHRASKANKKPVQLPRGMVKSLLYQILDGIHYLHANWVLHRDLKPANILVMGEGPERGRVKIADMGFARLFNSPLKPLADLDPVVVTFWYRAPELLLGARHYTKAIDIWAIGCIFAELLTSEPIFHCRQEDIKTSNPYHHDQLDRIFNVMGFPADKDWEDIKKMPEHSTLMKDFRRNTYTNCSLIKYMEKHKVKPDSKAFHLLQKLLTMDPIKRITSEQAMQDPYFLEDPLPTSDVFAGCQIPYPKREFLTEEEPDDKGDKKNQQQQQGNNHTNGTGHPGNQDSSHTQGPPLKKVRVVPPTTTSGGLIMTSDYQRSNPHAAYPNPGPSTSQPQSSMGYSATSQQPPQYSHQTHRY
Serine/threonine-protein kinase MRCK alpha, sequence (Q5VT25 whole entry): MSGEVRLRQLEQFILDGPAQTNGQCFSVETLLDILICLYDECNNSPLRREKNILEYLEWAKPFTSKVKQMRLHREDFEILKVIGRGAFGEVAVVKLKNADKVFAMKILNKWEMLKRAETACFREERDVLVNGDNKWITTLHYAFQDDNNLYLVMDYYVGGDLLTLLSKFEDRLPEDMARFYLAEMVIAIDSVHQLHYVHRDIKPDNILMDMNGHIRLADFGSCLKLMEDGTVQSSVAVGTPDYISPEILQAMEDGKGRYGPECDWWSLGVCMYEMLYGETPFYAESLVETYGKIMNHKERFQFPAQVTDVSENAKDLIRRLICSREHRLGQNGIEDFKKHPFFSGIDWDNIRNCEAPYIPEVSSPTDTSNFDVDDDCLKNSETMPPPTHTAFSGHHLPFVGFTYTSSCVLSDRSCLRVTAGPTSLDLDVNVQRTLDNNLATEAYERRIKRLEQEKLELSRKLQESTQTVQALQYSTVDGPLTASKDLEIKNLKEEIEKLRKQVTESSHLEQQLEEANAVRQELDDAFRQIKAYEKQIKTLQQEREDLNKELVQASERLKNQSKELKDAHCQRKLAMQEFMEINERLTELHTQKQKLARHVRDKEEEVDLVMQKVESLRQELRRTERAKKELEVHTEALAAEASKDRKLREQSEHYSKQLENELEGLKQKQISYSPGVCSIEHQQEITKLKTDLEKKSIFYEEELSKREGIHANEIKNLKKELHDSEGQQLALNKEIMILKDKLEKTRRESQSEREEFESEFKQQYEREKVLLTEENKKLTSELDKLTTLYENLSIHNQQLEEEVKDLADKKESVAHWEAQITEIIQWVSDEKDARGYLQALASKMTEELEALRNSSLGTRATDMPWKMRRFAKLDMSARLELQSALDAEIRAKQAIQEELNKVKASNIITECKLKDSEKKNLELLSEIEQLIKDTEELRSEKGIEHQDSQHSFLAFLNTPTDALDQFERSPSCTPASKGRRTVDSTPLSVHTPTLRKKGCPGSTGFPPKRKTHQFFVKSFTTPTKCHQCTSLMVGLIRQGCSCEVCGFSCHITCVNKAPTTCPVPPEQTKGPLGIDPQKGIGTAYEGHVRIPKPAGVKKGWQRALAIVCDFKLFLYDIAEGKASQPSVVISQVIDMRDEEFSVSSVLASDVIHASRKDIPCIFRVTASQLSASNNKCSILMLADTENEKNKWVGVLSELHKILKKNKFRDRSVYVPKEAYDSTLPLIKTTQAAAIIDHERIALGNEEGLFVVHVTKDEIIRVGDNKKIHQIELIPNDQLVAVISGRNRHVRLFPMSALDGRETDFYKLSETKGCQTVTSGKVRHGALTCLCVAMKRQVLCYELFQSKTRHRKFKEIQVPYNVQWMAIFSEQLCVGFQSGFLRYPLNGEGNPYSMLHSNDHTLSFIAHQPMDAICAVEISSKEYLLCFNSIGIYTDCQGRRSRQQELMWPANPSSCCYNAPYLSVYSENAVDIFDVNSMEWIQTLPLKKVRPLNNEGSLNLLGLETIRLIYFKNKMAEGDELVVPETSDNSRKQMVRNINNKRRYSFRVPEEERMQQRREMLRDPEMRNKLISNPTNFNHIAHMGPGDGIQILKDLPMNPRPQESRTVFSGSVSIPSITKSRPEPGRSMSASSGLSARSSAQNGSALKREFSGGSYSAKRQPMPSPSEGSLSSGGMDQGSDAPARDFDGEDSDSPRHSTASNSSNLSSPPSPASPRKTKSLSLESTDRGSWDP

SMILES: O=C1C=C(NCc2ccccc2)c2ccccc2C1=O
IC50 (Hexokinase HKDC1): 2.5 µM (active) | CC50 (Vero): 19.1 µM (active) | EC50 [1]: 2.61 µM (inconclusive)

SMILES: O=C(O)c1[nH]c2ccccc2c1C(c1cc(Cl)cc([N+](=O)[O-])c1O)c1c(C(=O)O)[nH]c2ccccc12
EC50 [2]: 9.16 µM (active) | IC50 [3]: 26.6 µM (inactive) | EC50 [4]: 14.9 µM (active)

Ki [5]: > 6.31 µM (inactive) | Ki [6]: > 10 µM (inactive) | Ki [7]: > 10 µM (inactive) | Ki [8]: > 7.94 µM (inactive) | Ki [9]: > 3.16 µM (inactive) | Ki [10]: 0.251 µM (active) | Ki (Ephrin type-A receptor 2): > 3.16 µM (inactive) | Ki [11]: > 6.31 µM (inactive) | Ki [12]: > 7.94 µM (inactive) | Ki [13]: > 10 µM (inactive)
SMILES: CCOC(=O)c1cn(-c2ccc(O)cc2C)c2cc(-c3ccncc3)ccc2c1=O

Ki (Activated CDC42 kinase 1): > 3.98 µM (inactive) | Ki [14]: > 3.16 µM (inactive) | Ki [15]: 0.158 µM (active) | Ki [16]: 0.00316 µM (active) | Ki [17]: 0.2 µM (active) | Ki [18]: > 2.51 µM (inactive)
SMILES: Cc1cc(=O)[nH]nc1-c1ccc(NC(=O)Nc2cc(C(F)(F)F)ccc2F)c(Cl)c1
